Source: PubChem BioAssay (NCI)
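Dose response: 5 concentrations. Exposure: 48 h. Format: 96-well plates. Endpoint: linear interpolation; highest concentration if not reached. The concentration for full growth arrest is given as TGI.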

Experiments:
Assay in all cases: NCI anticancer screen, dose series, 48 h
SK-MEL-2 melanoma = test system: SK-MEL-2 melanoma
SW-620 colon = test system: SW-620 colon
HOP-92 NSCLC = test system: HOP-92 NSCLC
M14 melanoma = test system: M14 melanoma
MALME-3M melanoma = test system: MALME-3M melanoma
SR leukemia = test system: SR leukemia
HCT-15 colon = test system: HCT-15 colon
M19-MEL melanoma = test system: M19-MEL melanoma
NCI-H522 lung = test system: NCI-H522 lung
LOX IMVI melanoma = test system: LOX IMVI melanoma
EKVX NSCLC = test system: EKVX NSCLC
DMS 114 small cell lung = test system: DMS 114 small cell lung
UACC-257 melanoma = test system: UACC-257 melanoma
OVCAR-5 ovarian = test system: OVCAR-5 ovarian
SK-OV-3 ovarian = test system: SK-OV-3 ovarian
KM20L2 colon = test system: KM20L2 colon
HOP-62 NSCLC = test system: HOP-62 NSCLC
A498 renal = test system: A498 renal
HOP-18 NSCLC = test system: HOP-18 NSCLC
XF 498 CNS = test system: XF 498 CNS
A549 NSCLC = test system: A549 NSCLC
SK-MEL-5 melanoma = test system: SK-MEL-5 melanoma
K-562 leukemia = test system: K-562 leukemia
SF-539 CNS = test system: SF-539 CNS
UO-31 renal = test system: UO-31 renal
NCI-H226 lung = test system: NCI-H226 lung
ACHN renal = test system: ACHN renal
CCRF-CEM leukemia = test system: CCRF-CEM leukemia
NCI-H23 lung = test system: NCI-H23 lung
HCT-116 colon = test system: HCT-116 colon
SK-MEL-28 melanoma = test system: SK-MEL-28 melanoma
786-0 renal = test system: 786-0 renal
COLO 205 colon = test system: COLO 205 colon
OVCAR-3 ovarian = test system: OVCAR-3 ovarian
DLD-1 colon = test system: DLD-1 colon
IGROV1 ovarian = test system: IGROV1 ovarian
SF-295 CNS = test system: SF-295 CNS
SNB-78 CNS = test system: SNB-78 CNS
OVCAR-4 ovarian = test system: OVCAR-4 ovarian
SNB-75 CNS = test system: SNB-75 CNS
CAKI-1 renal = test system: CAKI-1 renal
HT29 colon = test system: HT29 colon
RPMI-8226 leukemia = test system: RPMI-8226 leukemia
OVCAR-8 ovarian = test system: OVCAR-8 ovarian
SNB-19 CNS = test system: SNB-19 CNS
LXFL 529 NSCLC = test system: LXFL 529 NSCLC
SN12C renal = test system: SN12C renal
MOLT-4 leukemia = test system: MOLT-4 leukemia
SF-268 CNS = test system: SF-268 CNS
U251 CNS = test system: U251 CNS
UACC-62 melanoma = test system: UACC-62 melanoma
DMS 273 small cell lung = test system: DMS 273 small cell lung
TK-10 renal = test system: TK-10 renal
HCC-2998 colon = test system: HCC-2998 colon
NCI-H460 lung = test system: NCI-H460 lung
HL-60(TB) leukemia = test system: HL-60(TB) leukemia
KM12 colon = test system: KM12 colon
RXF 393 renal = test system: RXF 393 renal

Measured: TGI

CO[C@H]1CC[C@]2(C)C3=CC[C@@]4(C)C(CC[C@@H]4C(C)CC[C@@H](C)C(C)C)C(=CCC2C1)O3 (some centres undefined)
> 7.9 µM: NCI-H23 lung
> 25 µM: all other assays above

Cc1c(OCCCOc2ccc3c(=O)cc(-c4ccccc4)oc3c2C)ccc2c(=O)cc(-c3ccccc3)oc12
not listed: NCI-H226 lung | ACHN renal | COLO 205 colon | OVCAR-4 ovarian | SNB-75 CNS | SN12C renal | HCC-2998 colon
> 100 µM: all other assays above
